Results: US5071849A, “Dihydropyrimidothiazine derivatives” (priority 1989, dated 1991)
Like-named read-outs stand apart in the source and are kept apart here.

How the values were obtained:
in vivo = details: mouse, po
Procedure: White mice belonging to the CFLP strain (body weight 18-22 g; both male and female) are used, 10 animals for each dose. The test compound is administered orally in a volume of 20 ml/kg. […] The mice are kept in a plastic cage at room temperature. The animals get tap water and standard mouse fodder ad libitum.

Hexobarbital narcosis = Hexobarbital narcosis on mice; assay type: in vivo; details: for ED50: Mus musculus, po, mice, p.o., 1 hour before Hexobarbital 40 mg/kg i.v., sleeping time more than 2.5 times longer than control; for Therapeutical index: Table IV, hexobarbital narcosis on mice
Procedure: Groups consisting of 6 mice are used for each dose. The animals are treated orally with the test compound, whereby sleeping is induced 1 hour later by administering a 40 mg/kg i.v. dose of Hexobarbital both to the test and control groups.
ED50 values are calculated from the thus-transformed data.

[1] = test system: carrageen - induced oedema; assay: Inhibition of carrageen-induced oedema on rats; assay type: in vivo; details: for ED30: Rattus norvegicus, po, read-out: ID30 (dose resulting in an inhibition of 30%); for Therapeutical index: Table III, LD50 and ID30
Procedure: The antiinflammatory effect of the novel compounds of the invention was investigated on rats weighing 150 to 180 g. 0.1 ml of a 1 per cent carrageen suspension was injected subcutaneously into the plantar region of one of the hind paws. Rats were fasted for 12 hours and received drinking water ad libitum. One hour before treatment with the test compound animals were hydrated orally with 30 ml/kg of tap water. The test compounds or the vehicle were administered p.o. in a volume of 10 ml/kg, then two hours later carrageen was applied. The volume of the treated paw was measured by mercury-plethysmometer before and 3 hours after injection in such a way that displacement of the liquid arising from the volume alteration was indicated on a millimeter scale. The volumes of the treated paws were compared with those of the control group.

[2] = test system: experimental coronaria insufficiency induced with vasopressin; assay: Antianginal effect: vasopressin-induced experimental coronaria insufficiency, ECG wave T; assay type: in vivo; details: Rattus norvegicus; rats, iv., 2 minutes prior to vasopressin
Procedure: Male rats of 180-220 g body weight were narcotised with chloralese-urethane (70/700 mg/kg ip.). The ECG was registered with needle electrodes in standard II leading. The experimental coronaria insufficiency was induced with vasopressin (4 NE/kg i.v.). The height of wave T in ECG was measured before and after the administration of vasopressin in both the control and treated groups. Test compounds were administered intravenously 2 minutes prior to the treatment with vasopressin.

[3] = rats, p.o., two hours before carrageen, paw volume 3 hours after injection

Structure (SMILES) | LD50 at 336 h (in vivo) | ED30 [1, 3] | Therapeutical index [1] | further results
CC1=C(C(=O)Nc2ccccc2)C(c2ccccc2)N2CCCSC2=N1 (stereo not drawn) [Example 5, 6-Phenyl-8-methyl-3,4-dihydro-2H,6H-pyrimido[2,1-b][1,3]thiazine-7-carboxylic anilide] | 700 mg/kg |  |  | 
CCOC(=O)C1=C(C)N=C2SCCCN2C1c1ccc(Cl)c(Cl)c1 (stereo not drawn) [Example 3, Ethyl-[6-(3,4-dichlorophenyl)-8-methyl-3,4-dihydro-2H,6H-pyrimido[2,1-b][1,3]thiazine-7-carboxylate]] | 1000 mg/kg |  |  | 
CC1=C(C(=O)Nc2ccccc2)C(c2c(F)cccc2Cl)N2CCCSC2=N1 (stereo not drawn) [Example 6, 6-(2-Fluoro-6-chlorophenyl)-8-methyl-3,4-dihydro-2H,6H-pyrimido[2,1-b][1,3]thiazine-7-carboxylic anilide] | > 1000 mg/kg |  |  | ED50 (Hexobarbital narcosis): 25 mg/kg; Therapeutical index (Hexobarbital narcosis): 40.0
CCOC(=O)C1=C(C)N=C2SCCCN2C1c1ccc(Br)cc1 (stereo not drawn) [Example 11, Ethyl-[6-(4-bromophenyl)-8-methyl-3,4-dihydro-2H,6H-pyrimido[2,1-b][1,3]thiazine-7-carboxylate]] | > 1000 mg/kg |  |  | ED50 (Hexobarbital narcosis): ~200 mg/kg; Therapeutical index (Hexobarbital narcosis): 5.0
CCCCC1C(=O)N(c2ccccc2)N(c2ccccc2)C1=O [Phenylbutazone, reference compound] |  | 40 mg/kg |  | 
COC(=O)C1=C(C)N=C2SCCCN2C1c1ccc(Cl)c(Cl)c1 (stereo not drawn) [Example 16, Methyl-[6-(3,4-dichlorophenyl)-8-methyl-3,4-dihydro-2H,6H-pyrimido[2,1-b][1,3]thiazine-7-carboxylate]] | 1000 mg/kg | 120 mg/kg | 8.3 | ED50 [2]: ~0.81 mg/kg
COC(=O)C1=C(C)N=C2SCCCN2C1c1cc(OC)c(OC)c(OC)c1 (stereo not drawn) [Example 18, Methyl-[8-methyl-6-(3,4,5-trimethoxyphenyl)-3,4-dihydro-2H,6H-pyrimido[2,1-b][1,3]thiazine-7-carboxylate]] | > 1000 mg/kg | 110 mg/kg | > 9.1 | 
COC(=O)C1=C(C)N=C2SCCCN2C1c1cccc([N+](=O)[O-])c1 (stereo not drawn) [Example 4, Methyl-[6-(3-nitrophenyl)-8-methyl-3,4-dihydro-2H,6H-pyrimido[2,1-b][1,3]thiazine-7-carboxylate]] | 370 mg/kg |  |  | 
COC(=O)C1=C(C)N=C2SCCCN2C1c1ccc(OC)cc1 (stereo not drawn) [Example 15, Methyl-[8-methyl-6-(4-methoxyphenyl)-3,4-dihydro-2H,6H-pyrimido[2,1-b][1,3]thiazine-7-carboxylate]] | > 1000 mg/kg | 70 mg/kg | > 14.3 | 
CC(Cc1ccccc1)NCCC(c1ccccc1)c1ccccc1 (stereo not drawn) [Prenylamine, reference compound] |  |  |  | ED50 [2]: 6.5 mg/kg
CCOC(=O)C1=C(c2ccccc2)N=C2SCCCN2C1c1c(F)cccc1Cl (stereo not drawn) [Example 12] | > 1000 mg/kg |  |  | 
CCOC(=O)C1=C(C)N=C2SCCCN2C1c1ccc(OC)cc1 (stereo not drawn) [Example 7, Ethyl-[8-methyl-6-(4-methoxyphenyl)-3,4-dihydro2H,6H-pyrimido[2,1-b][1,3]thiazine-7-carboxylate]] | 600 mg/kg |  |  | ED50 [2]: 1.87 mg/kg
CCOC(=O)C1=C(C)N=C2SCCCN2C1c1ccccc1 (stereo not drawn) [Example 1, Ethyl-(6-phenyl-8-methyl-3,4-dihydro-2H,6H-pyrimido-[2,1-b][1,3]thiazine-7-carboxylate)] | 580 mg/kg |  |  | 
CC(=O)Oc1ccccc1C(=O)O [Acetylsalicylic acid, reference compound] |  |  | 6.8 | ED30 ([1]; 3 h): 200 mg/kg
COC(=O)C1=C(C)N=C2SCC(C)CN2C1c1ccc(Cl)c([N+](=O)[O-])c1 (stereo not drawn) [Example 9] | > 1000 mg/kg |  |  | 
CCOC(=O)C1=C(C)N=C2SCCCN2C1c1c(F)cccc1Cl (stereo not drawn) [Example 2, Ethyl-[6-(2-fluoro-6-chlorophenyl)-8-methyl-3,4-dihydro-2H,6H-pyrimido[2,1-b][1,3]thiazine-7-carboxylate]] | 170 mg/kg |  |  | 
CC(=O)Nc1ccc(O)cc1 [Paracetamol, reference compound] | 1180 mg/kg | 200 mg/kg | 5.9 | 
CCOC(=O)C1=C(c2ccccc2)N=C2SCCCN2C1c1ccc(OC)cc1 (stereo not drawn) [Example 19, Ethyl-[8-phenyl-6-(4-methoxyphenyl)-3,4-dihydro-2H,6H-pyrimido[2,1-b][1,3]thiazine-7-carboxylate]] |  |  |  | ED50 [2]: 1.45 mg/kg
CCOC(=O)C1=C(c2ccccc2)N=C2SCCCN2C1c1ccc([N+](=O)[O-])cc1 (stereo not drawn) [Example 13, Ethyl-[8-phenyl-6-(4-nitrophenyl)-3,4-dihydro-2H,6H-pyrimido[2,1-b][1,3]thiazine-7-carboxylate]] | 1000 mg/kg |  |  | ED50 (Hexobarbital narcosis): ~200 mg/kg; Therapeutical index (Hexobarbital narcosis): 5.0
COc1ccc2c(c1)c(CC(=O)O)c(C)n2C(=O)c1ccc(Cl)cc1 [Indomethacin, reference compound] |  |  | 7.3 | ED30 ([1]; 3 h): 3 mg/kg
CCCC(C)(COC(N)=O)COC(N)=O [Meprobamate, reference compound] |  |  |  | ED50 (Hexobarbital narcosis): 260 mg/kg; Therapeutical index (Hexobarbital narcosis): 4.2
COC(=O)C1=C(C)N=C2SCCCN2C1c1ccc(Cl)c([N+](=O)[O-])c1 (stereo not drawn) [Example 8] | 700 mg/kg |  |  | ED50 [2]: 1.21 mg/kg
COC(=O)C1=C(C)N=C2SCCCN2C1C (stereo not drawn) [Example 14, Methyl-(6,8-dimethyl-3,4-dihydro-2H,6H-pyrimido-[2,1-b][1,3]thiazine-7-carboxylate)] | 400 mg/kg | 10 mg/kg | 40 | 
COC(=O)C1=C(C)N=C2SCCCN2C1c1ccccc1OC (stereo not drawn) [Example 25, Methyl-[8-methyl-6-(2-methoxyphenyl)-3,4-dihydro-2H,6H-pyrimido[2,1-b][1,3]thiazine-7-carboxylate]] | 100 to 500 mg/kg | 10 mg/kg | 10-50 | 
COC(=O)C1=C(C)N=C2SCC(C)CN2C1c1cccc([N+](=O)[O-])c1 (stereo not drawn) [Example 10] | > 1000 mg/kg |  |  | ED50 (Hexobarbital narcosis): 39 mg/kg; Therapeutical index (Hexobarbital narcosis): 25.6
CCOC(=O)C1=C(C)N=C2SCCCN2C1c1ccc(N(C)C)cc1 (stereo not drawn) [Example 22, Ethyl-[6-(4-dimethylaminophenyl)-8-methyl-3,4-dihydro-2H,6H-pyrimido[2,1-b][1,3]thiazine-7-carboxylate]] | 700 mg/kg | 10 mg/kg | 70 | 
